Experimental data as given in US9655363B2, “Microbiocides” (Syngenta Participations AG, priority 2013, dated 2017).

Assays:
[1] = test system: Blumeria Graminis f. sp. Tritici (Erysiphe Graminis f. sp. Tritici); test: Blumeria graminis f. sp. tritici / wheat / leaf disc preventative (powdery mildew on wheat); type: in vivo; conditions: foliar, wheat leaf disc cv. Kanzler, compared to untreated, 6-8 days after application, read-out: disease control
Method: Fungicidal Activity Against Blumeria Graminis f. sp. Tritici (Erysiphe Graminis f. sp. Tritici)/Wheat/Leaf Disc Preventative (Powdery Mildew on Wheat) Wheat leaf segments cv. Kanzler were placed on agar in a multiwell plate (24-well format) and sprayed with the formulated test compound diluted in water. The leaf disks were inoculated by shaking powdery mildew infected plants above the test plates 1 day after application. The inoculated leaf disks were incubated at 20° C. and 60% rh under a light regime of 24 h darkness followed by 12 h light/12 h darkness in a climate chamber and the activity of a compound was assessed as percent disease control compared to untreated when an appropriate level of disease damage appears on untreated check leaf segments (6-8 days after application).

[2] = test system: Puccinia Recondita f. sp. Tritici; test: Puccinia recondita f. sp. tritici / wheat / leaf disc preventative (brown rust); type: in vivo; conditions: foliar, wheat leaf disc cv. Kanzler, compared to untreated, 7-9 days after application, read-out: disease control
Method: Fungicidal Activity Against Puccinia Recondita f. sp. Tritici/Wheat/Leaf Disc Preventative (Brown Rust) Wheat leaf segments cv. Kanzler were placed on agar in multiwell plates (24-well format) and sprayed with the formulated test compound diluted in water. The leaf disks were inoculated with a spore suspension of the fungus 1 day after application. The inoculated leaf segments were incubated at 19° C. and 75% rh under a light regime of 12 h light/12 h darkness in a climate cabinet and the activity of a compound was assessed as percent disease control compared to untreated when an appropriate level of disease damage appears in untreated check leaf segments (7-9 days after application).

[3] = test system: Puccinia Recondita f. sp. Tritici; test: Puccinia recondita f. sp. tritici / wheat / leaf disc curative (brown rust); type: in vivo; conditions: foliar, 192 h, compared to untreated, 8 days after inoculation, read-out: disease control
Method: Fungicidal Activity Against Puccinia Recondita f. sp. Tritici/Wheat/Leaf Disc Curative (Brown Rust) Wheat leaf segments are placed on agar in multiwell plates (24-well format). The leaf disks are then inoculated with a spore suspension of the fungus. One day after inoculation the test solution is applied. After appropriate incubation the activity of a compound is assessed 8 dpi (days after inoculation) as curative fungicidal activity. Dose range: 200-22 ppm.

[4] = test system: Mycosphaerella Arachidis (Cercospora Arachidicola); test: Mycosphaerella arachidis (Cercospora arachidicola) / liquid culture (early leaf spot); type: cell-based; conditions: liquid culture (PDB), growth inhibition photometrically 4-5 days after application, read-out: disease control
Method: (§1) Fungicidal Activity Against Mycosphaerella Arachidis (Cercospora Arachidicola)/Liquid Culture (Early Leaf Spot) Conidia of the fungus from cryogenic storage were directly mixed into nutrient broth (PDB potato dextrose broth). After placing a (DMSO) solution of test compound into a microtiter plate (96-well format), the nutrient broth containing the fungal spores was added. The test plates were incubated at 24° C. and the inhibition of growth was determined photometrically 4-5 days after application.

[5] = test system: Mycosphaerella Graminicola (Septoria Tritici); test: Mycosphaerella graminicola (Septoria tritici) / liquid culture (Septoria blotch); type: cell-based; conditions: Zymoseptoria tritici, liquid culture (PDB), growth inhibition photometrically 4-5 days after application, read-out: disease control
Method: as §1, with “Graminicola (Septoria Tritici)/Liquid” for “Arachidis (Cercospora Arachidicola)/Liquid”, “(Septoria Blotch)” for “(Early Leaf Spot)”

[6] = test system: Thanatephorus Cucumeris (Rhizoctonia Solani); test: Thanatephorus cucumeris (Rhizoctonia solani) / liquid culture (foot rot, damping-off); type: cell-based; conditions: liquid culture (PDB), growth inhibition photometrically 3-4 days after application, read-out: disease control
Method: Fungicidal Activity Against Thanatephorus Cucumeris (Rhizoctonia Solani)/Liquid Culture (Foot Rot, Damping-Off) Mycelia fragments of a newly grown liquid culture of the fungus were directly mixed into nutrient broth (PDB potato dextrose broth). After placing a (DMSO) solution of the test compounds into a microtiter plate (96-well format), the nutrient broth containing the fungal material was added. The test plates were incubated at 24° C. and the inhibition of growth was determined photometrically 3-4 days after application. Compounds (from table T1) 1, 2, 4, 7, 8, 10, 11, 13, 14 and 17 at 200 ppm give at least 80% disease control in this test when compared to untreated control leaf disks under the same conditions, which show extensive disease development.

OC(Cn1cncn1)(c1ccc(Cl)cc1)C1(c2ccccn2)CC1 (stereo not shown) [Compound 1, 1-(4-chlorophenyl)-1-[1-(2-pyridyl)cyclopropyl]-2-(1,2,4-triazol-1-yl)ethanol]
≥ 80%: pest or weed control at 200 ppm [1] | pest or weed control at 200 ppm [2] | pest or weed control at 200 ppm [3] | inhibition of growth at 200 ppm [4] | inhibition of growth at 200 ppm [5] | inhibition of growth at 200 ppm [6]

OC(Cn1cncn1)(c1ccc(F)cc1)C1(c2ncc(Br)cc2Cl)CC1 (stereo not shown) [Compound 2, 1-[1-(5-bromo-3-chloro-2-pyridyl)cyclopropyl]-1-(4-fluorophenyl)-2-(1,2,4-triazol-1-yl)ethanol]
≥ 80%: pest or weed control at 200 ppm [1] | pest or weed control at 200 ppm [2] | pest or weed control at 200 ppm [3] | inhibition of growth at 200 ppm [4] | inhibition of growth at 200 ppm [5] | inhibition of growth at 200 ppm [6]

OC(Cn1ccnc1)(c1ccc(F)cc1)C1(c2ccc(Br)cn2)CC1 (stereo not shown) [Compound 3, 1-[1-(5-bromo-2-pyridyl)cyclopropyl]-1-(4-fluorophenyl)-2-imidazol-1-yl-ethanol]
≥ 80%: pest or weed control at 200 ppm [1] | pest or weed control at 200 ppm [2] | pest or weed control at 200 ppm [3]

OC(Cn1cncn1)(c1ccc(F)cc1)C1(c2ccc(Br)cn2)CC1 (stereo not shown) [Compound 4, 1-[1-(5-bromo-2-pyridyl)cyclopropyl]-1-(4-fluorophenyl)-2-(1,2,4-triazol-1-yl)ethanol]
≥ 80%: pest or weed control at 200 ppm [1] | pest or weed control at 200 ppm [2] | pest or weed control at 200 ppm [3] | inhibition of growth at 200 ppm [4] | inhibition of growth at 200 ppm [6]

OC(Cn1ccnc1)(c1ccc(F)cc1)C1(c2ncc(Br)cc2Cl)CC1 (stereo not shown) [Compound 5, 1-[1-(5-bromo-3-chloro-2-pyridyl)cyclopropyl]-1-(4-fluorophenyl)-2-imidazol-1-yl-ethanol]
≥ 80%: pest or weed control at 200 ppm [1] | pest or weed control at 200 ppm [2] | pest or weed control at 200 ppm [3]

OC(Cn1cncn1)(c1ccc(F)cc1)C1(c2ccc(Br)c(-c3ccc(F)cc3)n2)CC1 (stereo not shown) [Compound 6, 1-[1-[5-bromo-6-(4-fluorophenyl)-2-pyridyl]cyclopropyl]-1-(4-fluorophenyl)-2-(1,2,4-triazol-1-yl)ethanol]
≥ 80%: pest or weed control at 200 ppm [1] | pest or weed control at 200 ppm [2] | pest or weed control at 200 ppm [3] | inhibition of growth at 200 ppm [4]

OC(Cn1cncn1)(c1ccc(F)cc1)C1(c2ccc(C3CC3)cn2)CC1 (stereo not shown) [Compound 7, 1-[1-(5-cyclopropyl-2-pyridyl)cyclopropyl]-1-(4-fluorophenyl)-2-(1,2,4-triazol-1-yl)ethanol]
≥ 80%: pest or weed control at 200 ppm [1] | pest or weed control at 200 ppm [2] | pest or weed control at 200 ppm [3] | inhibition of growth at 200 ppm [4] | inhibition of growth at 200 ppm [5] | inhibition of growth at 200 ppm [6]

N#Cc1ccc(-c2ccc(C3(C(O)(Cn4cncn4)c4ccc(F)cc4)CC3)nc2)cc1 (stereo not shown) [Compound 8, 4-[6-[1-[1-(4-fluorophenyl)-1-hydroxy-2-(1,2,4-triazol-1-yl)ethyl]cyclopropyl]-3-pyridyl]benzonitrile]
≥ 80%: pest or weed control at 200 ppm [1] | pest or weed control at 200 ppm [2] | pest or weed control at 200 ppm [3] | inhibition of growth at 200 ppm [4] | inhibition of growth at 200 ppm [5] | inhibition of growth at 200 ppm [6]

OC(Cn1cncn1)(c1ccc(F)cc1)C1(c2ccc(Cl)nc2)CC1 (stereo not shown) [Compound 9, 1-[1-(6-chloro-3-pyridyl)cyclopropyl]-1-(4-fluorophenyl)-2-(1,2,4-triazol-1-yl)ethanol]
≥ 80%: pest or weed control at 200 ppm [1] | pest or weed control at 200 ppm [2] | pest or weed control at 200 ppm [3] | inhibition of growth at 200 ppm [4] | inhibition of growth at 200 ppm [5]

OC(Cn1cncn1)(c1ccc(F)cc1)C1(c2ccccn2)CC1 (stereo not shown) [Compound 10, 1-(4-fluorophenyl)-1-[1-(2-pyridyl)cyclopropyl]-2-(1,2,4-triazol-1-yl)ethanol]
≥ 80%: pest or weed control at 200 ppm [1] | pest or weed control at 200 ppm [2] | pest or weed control at 200 ppm [3] | inhibition of growth at 200 ppm [4] | inhibition of growth at 200 ppm [5] | inhibition of growth at 200 ppm [6]

OC(Cn1cncn1)(c1ccc(Cl)cc1)C1(c2ccc(Cl)cn2)CC1 (stereo not shown) [Compound 11, 1-(4-chlorophenyl)-1-[1-(5-chloro-2-pyridyl)cyclopropyl]-2-(1,2,4-triazol-1-yl)ethanol]
≥ 80%: pest or weed control at 200 ppm [1] | pest or weed control at 200 ppm [2] | pest or weed control at 200 ppm [3] | inhibition of growth at 200 ppm [4] | inhibition of growth at 200 ppm [5] | inhibition of growth at 200 ppm [6]

N#Cc1ccc(C2(C(O)(Cn3cncn3)c3ccc(F)cc3)CC2)nc1 (stereo not shown) [Compound 12, 6-[1-[1-(4-fluorophenyl)-1-hydroxy-2-(1,2,4-triazol-1-yl)ethyl]cyclopropyl]pyridine-3-carbonitrile]
≥ 80%: pest or weed control at 200 ppm [1] | pest or weed control at 200 ppm [2] | pest or weed control at 200 ppm [3] | inhibition of growth at 200 ppm [5]

OC(Cn1cncn1)(c1ccc(F)cc1)C1(c2ccc(C(F)(F)F)cn2)CC1 (stereo not shown) [Compound 13, 1-(4-fluorophenyl)-2-(1,2,4-triazol-1-yl)-1-[1-[5-(trifluoromethyl)-2-pyridyl]cyclopropyl]ethanol]
≥ 80%: pest or weed control at 200 ppm [1] | pest or weed control at 200 ppm [2] | pest or weed control at 200 ppm [3] | inhibition of growth at 200 ppm [4] | inhibition of growth at 200 ppm [5] | inhibition of growth at 200 ppm [6]

OC(Cn1cncn1)(c1ccc(F)cc1)C1(c2ccc(Cl)cn2)CC1 (stereo not shown) [Compound 14, 1-[1-(5-chloro-2-pyridyl)cyclopropyl]-1-(4-fluorophenyl)-2-(1,2,4-triazol-1-yl)ethanol]
≥ 80%: pest or weed control at 200 ppm [1] | pest or weed control at 200 ppm [2] | pest or weed control at 200 ppm [3] | inhibition of growth at 200 ppm [4] | inhibition of growth at 200 ppm [5] | inhibition of growth at 200 ppm [6]

OC(Cn1cncn1)(c1ccc(Cl)cc1)C1(c2ccccn2)CCCC1 (stereo not shown) [Compound 15, 1-(4-chlorophenyl)-1-[1-(2-pyridyl)cyclopentyl]-2-(1,2,4-triazol-1-yl)ethanol]
≥ 80%: pest or weed control at 200 ppm [1] | pest or weed control at 200 ppm [2] | pest or weed control at 200 ppm [3] | inhibition of growth at 200 ppm [4] | inhibition of growth at 200 ppm [5]

OC(Cn1cncn1)(c1ccc(Cl)cc1)C1(c2ccc(Cl)cn2)CCC1 (stereo not shown) [Compound 16, 1-(4-chlorophenyl)-1-[1-(5-chloro-2-pyridyl)cyclobutyl]-2-(1,2,4-triazol-1-yl)ethanol]
≥ 80%: pest or weed control at 200 ppm [1] | pest or weed control at 200 ppm [2] | pest or weed control at 200 ppm [3] | inhibition of growth at 200 ppm [4] | inhibition of growth at 200 ppm [5]

OC(Cn1cncn1)(c1ccc(F)cc1)C1(c2ccc(-c3cccc(OC(F)(F)F)c3)cn2)CCC1 (stereo not shown) [Compound 18, 1-(4-fluorophenyl)-2-(1,2,4-triazol-1-yl)-1-[1-[5-[3-(trifluoromethoxy)phenyl]-2-pyridyl]cyclobutyl]ethanol]
≥ 80%: pest or weed control at 200 ppm [1] | inhibition of growth at 200 ppm [4] | inhibition of growth at 200 ppm [5]

OC(Cn1cncn1)(c1ccc(F)cc1)C1(c2ccc(-c3ccc(Cl)cc3F)cn2)CCC1 (stereo not shown) [Compound 19, 1-[1-[5-(4-chloro-2-fluoro-phenyl)-2-pyridyl]cyclobutyl]-1-(4-fluorophenyl)-2-(1,2,4-triazol-1-yl)ethanol]
≥ 80%: pest or weed control at 200 ppm [1] | inhibition of growth at 200 ppm [4] | inhibition of growth at 200 ppm [5]
